This assay deals with human MRGPRD (Homo sapiens, UniProt Q8TDS7). Briefly: MRGPRD antagonist activity, IP-One HTRF assay in CHO cells stably expressing human MRGPRD (versus 100 μM β-Alanine agonist). Format: cell-based. The gist of the method:
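CHO cells stably expressing human MRGPRD, plated overnight at 37 °C, were treated with antagonist plus agonist in Tris-HCl/NaCl/LiCl buffer pH 8, incubated 1 h at 37 °C then 1 h at room temperature. IP-1 accumulation read by HTRF; IC50 and percent antagonism of maximum efficacy averaged, SEM reported.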
For orientation: TR-FRET usually uses a lanthanide donor and a delayed reading to cut background.

The text below walks through data of patent publication US20260001871A1, “TRIAZOLE DERIVATIVES AS MODULATORS OF MAS-RELATED G-PROTEIN RECEPTOR D” (ESCIENT PHARMACEUTICALS, INC., priority 2022, published 2026).

Chain of human MRGPRD (Q8TDS7 whole entry): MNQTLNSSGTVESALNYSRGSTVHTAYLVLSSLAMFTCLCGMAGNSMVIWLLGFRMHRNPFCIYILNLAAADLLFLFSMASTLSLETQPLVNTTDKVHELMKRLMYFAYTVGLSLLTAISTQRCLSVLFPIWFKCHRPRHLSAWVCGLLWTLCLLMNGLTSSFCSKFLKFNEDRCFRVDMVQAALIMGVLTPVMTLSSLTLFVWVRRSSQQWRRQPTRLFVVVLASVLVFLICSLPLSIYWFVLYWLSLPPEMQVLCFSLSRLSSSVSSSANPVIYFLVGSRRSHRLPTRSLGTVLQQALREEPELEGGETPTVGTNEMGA

One may read the IC50 as the point on the concentration scale where inhibition reaches its midpoint. In turn, `O=C(Nc1ccncc1)c1nnn(-c2ccc(-c3cnoc3)cc2)c1C1CC1` [Compound 7-105] yielded an IC50 of 100 to 500 nM. With `CC(C)n1nccc1-c1ccc(-n2nnc(C(=O)Nc3ccncc3)c2C2CC2)cc1` [Compound 7-106] the figure was 100 to 500 nM; with `O=C(Nc1ccncc1)c1nnn(-c2ccc(-c3cccc(CC(F)(F)F)c3)cc2)c1C1CC1` [Compound 7-107], 100 to 500 nM; with `Cc1ccc(CNC(=O)c2nnn(-c3ccc(-c4cnn(Cc5ccccc5)c4)cc3)c2C2CC2)cn1` [Compound 7-108], 100 to 500 nM. With `Cn1nc(C2CC2)cc1-c1ccc(-n2nnc(C(=O)Nc3ccncc3)c2C2CC2)cc1` [Compound 7-109] the figure was 100 to 500 nM.

Take `Cc1cn(C)nc1-c1ccc(-n2nnc(C(=O)Nc3ccncc3)c2C2CC2)cc1` [Compound 7-110]: the IC50 was 100 to 500 nM. As to `Cn1nc(-c2ccc(-n3nnc(C(=O)Nc4ccncc4)c3C3CC3)cc2)cc1-c1ccccc1` [Compound 7-111], the IC50 was 100 to 500 nM.

Compound `COc1ccccc1-c1ccc(-n2nnc(C(=O)Nc3ccncc3)c2C2CC2)cc1` [Compound 7-112] had an IC50 of 100 to 500 nM. On to `Cc1cccc(-c2ccc(-n3nnc(C(=O)Nc4ccncc4)c3C3CC3)cc2)c1` [Compound 7-113], for which the IC50 was in the range of 500 to 1000 nM. Compound `O=C(Nc1ccncc1)c1nnn(-c2ccc(C3=CCOCC3)cc2)c1C1CC1` [Compound 7-114] registered an IC50 of 500 to 1000 nM. In the case of `Cc1nc(-c2ccc(-n3nnc(C(=O)Nc4ccncc4)c3C3CC3)cc2)sc1C` [Compound 7-115], the IC50 was in the range of 500 to 1000 nM.

Compound `O=C(Nc1ccncc1)c1nnn(-c2ccc(-c3ccnn3C3CCC3)cc2)c1C1CC1` [Compound 7-116] came in with an IC50 of 500 to 1000 nM. With `CC(O)c1cccc(-c2ccc(-n3nnc(C(=O)Nc4ccncc4)c3C3CC3)cc2)c1` (stereo not drawn) [Compound 7-117], the IC50 fell in the range of 500 to 1000 nM. With `Cc1nn(C(F)F)cc1-c1ccc(-n2nnc(C(=O)Nc3ccncc3)c2C2CC2)cc1` [Compound 7-118] the figure was 500 to 1000 nM; with `Cc1c[nH]nc1-c1ccc(-n2nnc(C(=O)Nc3ccncc3)c2C2CC2)cc1` [Compound 7-119], 500 to 1000 nM; with `Cc1c(-c2ccc(-n3nnc(C(=O)Nc4ccncc4)c3C3CC3)cc2)c(C#N)nn1C` [Compound 7-120], 500 to 1000 nM. Compound `Cc1cc(-c2ccc(-n3nnc(C(=O)Nc4ccncc4)c3C3CC3)cc2)c(C)s1` [Compound 7-121] registered an IC50 of 500 to 1000 nM. As for `O=C(Nc1ccncc1)c1nnn(-c2ccc(-c3cccc(C(F)F)c3)cc2)c1C1CC1` [Compound 7-122], the figure is 500 to 1000 nM.

As for `O=C(Nc1ccncc1)c1nnn(-c2ccc(-c3cnn(CC(F)(F)F)c3)cc2)c1C1CC1` [Compound 7-123], the IC50 was 500 to 1000 nM.

For the compound `Cn1cnc(-c2ccc(-n3nnc(C(=O)Nc4ccncc4)c3C3CC3)cc2)c1` [Compound 7-124], the concentration for half-maximal inhibition (IC50) was 500 to 1000 nM. With `O=C(Nc1ccncc1)c1nnn(-c2ccc(-c3ccns3)cc2)c1C1CC1` [Compound 7-125] the figure was 500 to 1000 nM; with `Cn1cc(-c2ccc(-n3nnc(C(=O)Nc4ccncc4)c3C3CC3)cc2)cn1` [Compound 7-126], 500 to 1000 nM; with `O=C(Nc1ccncc1)c1nnn(-c2ccc(-c3ccc(C4CCC4)cc3)cc2)c1C1CC1` [Compound 7-127], 500 to 1000 nM. With `Cc1[nH]nc(-c2ccc(-n3nnc(C(=O)Nc4ccncc4)c3C3CC3)cc2)c1Cl` [Compound 7-128] the figure was 500 to 1000 nM.

Turning to `O=C(Nc1ccncc1)c1nnn(-c2ccc(-c3ccccc3F)cc2)c1C1CC1` [Compound 7-129], the IC50 lay within 500 to 1000 nM. As for `O=C(Nc1ccncc1)c1nnn(-c2ccc(-c3n[nH]cc3F)cc2)c1C1CC1` [Compound 7-130], the figure is 500 to 1000 nM. With `CC(C)Oc1ccc(-c2ccc(-n3nnc(C(=O)Nc4ccncc4)c3C3CC3)cc2)cc1` [Compound 7-131] the figure was 500 to 1000 nM. For `Cc1cc(-c2ccc(-n3nnc(C(=O)Nc4ccncc4)c3C3CC3)cc2)n(C)n1` [Compound 7-132], the IC50 is 500 to 1000 nM.

Consider `Cc1nn(C)c(CO)c1-c1ccc(-n2nnc(C(=O)Nc3ccncc3)c2C2CC2)cc1` [Compound 7-133], for which the IC50 is 500 to 1000 nM.

For `CC(=O)c1ccccc1-c1ccc(-n2nnc(C(=O)Nc3ccncc3)c2C2CC2)cc1` [Compound 7-134], the IC50 was 500 to 1000 nM. In turn, `NS(=O)(=O)c1cccc(-c2ccc(-n3nnc(C(=O)Nc4ccncc4)c3C3CC3)cc2)c1` [Compound 7-135] had an IC50 of 500 to 1000 nM. As to `C#Cc1cccc(-c2ccc(-n3nnc(C(=O)Nc4ccncc4)c3C3CC3)cc2)c1` [Compound 7-136], the IC50 was 500 to 1000 nM.

Take `O=C(Nc1ccncc1)c1nnn(-c2ccc(-c3cnn(C(F)F)c3)cc2)c1C1CC1` [Compound 7-137]: the IC50 lay in the range of 500 to 1000 nM.

The compound `COc1cc(-c2ccc(-n3nnc(C(=O)Nc4ccncc4)c3C3CC3)cc2)n[nH]1` [Compound 7-138] registered an IC50 of 500 to 1000 nM. As for `N#Cc1cccc(-c2ccc(-n3nnc(C(=O)Nc4ccncc4)c3C3CC3)cc2)c1` [Compound 7-139], the figure is 500 to 1000 nM. Compound `Cc1csc(-c2ccc(-n3nnc(C(=O)Nc4ccncc4)c3C3CC3)cc2)n1` [Compound 7-140] came in with an IC50 of 500 to 1000 nM. The compound `NS(=O)(=O)c1ccc(-c2ccc(-n3nnc(C(=O)Nc4ccncc4)c3C3CC3)cc2)cc1` [Compound 7-141] returned an IC50 of 500 to 1000 nM. `CC(C)(C)n1cc(-c2ccc(-n3nnc(C(=O)Nc4ccncc4)c3C3CC3)cc2)cn1` [Compound 7-142]: the IC50 lay within 500 to 1000 nM.

Turning to `N#Cc1c[nH]nc1-c1ccc(-n2nnc(C(=O)Nc3ccncc3)c2C2CC2)cc1` [Compound 7-143], the IC50 was in the range of 500 to 1000 nM. As for `Cn1ncc(-c2ccc(-n3nnc(C(=O)Nc4ccncc4)c3C3CC3)cc2)c1-c1ccccc1` [Compound 7-144], the figure is 500 to 1000 nM. With `O=C(Nc1ccncc1)c1nnn(-c2ccc(-c3ccccc3Cl)cc2)c1C1CC1` [Compound 7-145] the figure was 500 to 1000 nM; with `CN(C)Cc1cccc(-c2ccc(-n3nnc(C(=O)Nc4ccncc4)c3C3CC3)cc2)c1` [Compound 7-146], 500 to 1000 nM.

With `CC(=O)c1ccc(-c2ccc(-n3nnc(C(=O)Nc4ccncc4)c3C3CC3)cc2)s1` [Compound 7-147], the IC50 is 500 to 1000 nM.

In turn, `CC(C)Oc1cccc(-c2ccc(-n3nnc(C(=O)Nc4ccncc4)c3C3CC3)cc2)c1` [Compound 7-148] came in with an IC50 of 500 to 1000 nM. With `O=C(Nc1ccncc1)c1nnn(-c2ccc(-c3ccc(CC4CC4)cc3)cc2)c1C1CC1` [Compound 7-149] the figure was 500 to 1000 nM. As for `C#Cc1ccc(-c2ccc(-n3nnc(C(=O)Nc4ccncc4)c3C3CC3)cc2)cc1` [Compound 7-150], the figure is 500 to 1000 nM; as for `O=C(Nc1ccncc1)c1nnn(-c2ccc(-c3ccccc3CO)cc2)c1C1CC1` [Compound 7-151], 500 to 1000 nM; as for `O=C(Nc1ccncc1)c1nnn(-c2ccc(-c3cccs3)cc2)c1C1CC1` [Compound 7-152], 500 to 1000 nM. As for `COc1cccc(-c2ccc(-n3nnc(C(=O)Nc4ccncc4)c3C3CC3)cc2)c1` [Compound 7-153], the figure is 500 to 1000 nM. The compound `N#CCc1ccccc1-c1ccc(-n2nnc(C(=O)Nc3ccncc3)c2C2CC2)cc1` [Compound 7-154] came in with an IC50 of 500 to 1000 nM. For the compound `O=C(Nc1ccncc1)c1nnn(-c2ccc(-c3cccc(C(F)(F)F)c3)cc2)c1C1CC1` [Compound 7-155], the IC50 was 500 to 1000 nM. With `O=C(Nc1ccncc1)c1nnn(-c2ccc(-c3ccnn3-c3ccccc3)cc2)c1C1CC1` [Compound 7-156], the IC50 was 500 to 1000 nM. As for `CC(C)n1nc(C(F)(F)F)cc1-c1ccc(-n2nnc(C(=O)Nc3ccncc3)c2C2CC2)cc1` [Compound 7-157], the figure is 500 to 1000 nM; as for `COCn1cc(-c2ccc(-n3nnc(C(=O)Nc4ccncc4)c3C3CC3)cc2)cn1` [Compound 7-158], 500 to 1000 nM; as for `CC(C)Oc1ccccc1-c1ccc(-n2nnc(C(=O)Nc3ccncc3)c2C2CC2)cc1` [Compound 7-160], 500 to 1000 nM. With `O=C(Nc1ccncc1)c1nnn(-c2ccc(-c3ccccc3O)cc2)c1C1CC1` [Compound 7-161] the figure was 500 to 1000 nM; with `O=C(Nc1ccncc1)c1nnn(-c2ccc(-c3cccc(OC(F)(F)F)c3)cc2)c1C1CC1` [Compound 7-162], 1000 to 3000 nM; with `Cn1ccnc1-c1ccc(-n2nnc(C(=O)Nc3ccncc3)c2C2CC2)cc1` [Compound 7-163], 1000 to 3000 nM. `Cn1nc(-c2ccc(-n3nnc(C(=O)Nc4ccncc4)c3C3CC3)cc2)c2ccccc21` [Compound 7-164] registered an IC50 of 1000 to 3000 nM. Take `O=C(Nc1ccncc1)c1nnn(-c2ccc(-c3n[nH]c4cnccc34)cc2)c1C1CC1` [Compound 7-165]: the IC50 fell in the range of 1000 to 3000 nM. With `O=C(Nc1ccncc1)c1nnn(-c2ccc(-c3cccc(C4CCCCC4)c3)cc2)c1C1CC1` [Compound 7-166] the figure was 1000 to 3000 nM. For the compound `COCc1cccc(-c2ccc(-n3nnc(C(=O)Nc4ccncc4)c3C3CC3)cc2)c1` [Compound 7-167], the IC50 fell in the range of 1000 to 3000 nM. With `O=C(Nc1ccncc1)c1nnn(-c2ccc(-c3ccnn3CC3CC3)cc2)c1C1CC1` [Compound 7-168] the figure was 1000 to 3000 nM. Regarding `O=C(Nc1ccncc1)c1nnn(-c2ccc(-c3ccccc3C(F)(F)F)cc2)c1C1CC1` [Compound 7-169], the IC50 is 1000 to 3000 nM. `O=C(Nc1ccncc1)c1nnn(-c2ccc(-c3cccc(O)c3)cc2)c1C1CC1` [Compound 7-170] registered an IC50 of 1000 to 3000 nM. With `O=C(Nc1ccncc1)c1nnn(-c2ccc(-c3cccc(CO)c3)cc2)c1C1CC1` [Compound 7-171] the figure was 1000 to 3000 nM. The compound `CN(C)c1ccccc1-c1ccc(-n2nnc(C(=O)Nc3ccncc3)c2C2CC2)cc1` [Compound 7-172] registered an IC50 of 1000 to 3000 nM. Consider `O=C(Nc1ccncc1)c1nnn(-c2ccc(-c3cn[nH]c3)cc2)c1C1CC1` [Compound 7-173], for which the IC50 fell in the range of 1000 to 3000 nM. In the case of `CC(=O)c1ccc(-c2ccc(-n3nnc(C(=O)Nc4ccncc4)c3C3CC3)cc2)cc1C` [Compound 7-174], the IC50 is 1000 to 3000 nM.
